# Assays:
# human skin discards = assay: Sphingosine/ceramide formation from deuterated palmitic acid in ex vivo human skin model (LC/MS/MS); type: cell-based
# Experimental: In this experiment, a standard topical base composition was charged with 3% by weight deuterated d31palmitic acid and a second base was charged with 3% by weight deuterated d31palmitic acid in combination with 3% by weight 12-hydroxystearic acid. Both compositions were applied to separate human skin discards. Biopsies were taken, placed on collagen and incubated at 37° C. with about 5% carbon dioxide. Samples were harvested after 5 days, extracted, and fractionated to obtain ceramide fractions. Elongation of deuterated d31Palmitic acid (dC16:0) with and without the PPAR activator 12-hydroxystearic acid was investigated in an ex vivo human skin model. The ceramide fraction obtained was hydrolyzed to release deuterated sphingosine and analyzed via liquid chromatography/tandem mass-spectrometry (LC/MS/MS). This technique was used to identify and measure “precursor-to-product” ion transitions specific to deuterated sphingosine, and therefore, to track sphingosine formation from deuterated palmitic acid applied to skin discards. Unexpectedly, the amount of resulting deuterated sphingosine increased in the presence the PPAR activator. The numbers in units (“u”) provided depict the signal abundance of the biomolecules looked and accounted for in a sample as determined by LC/MS/MS. […]
# [1] = system: neonatal keratinocyte model; assay: Elongation of deuterated d31-Palmitic acid with and without 12-hydroxystearic acid in neonatal keratinocyte model (LC/MS/MS); type: cell-based
# Experimental: In this experiment the elongation of deuterated d31-Palmitic acid (dC16:0) with and without PPAR activator 12-hydroxystearic was investigated in a neonatal keratinocyte model. Keratinocytes were grown in an EpiLife™ medium (with calcium, from Thermo Fisher Scientific) in six well plate formats until confluency. Confluent keratinocytes were differentiated with CaCl2 treatment. The cells in wells deplete of PPAR activator were treated with the substrate: 1 uM of d31-Palmitic acid (dC16:0) every second or third day until harvested on day 7. The remainder of the samples were treated with 1 uM of the aforementioned dC16:0 and 12 hydroxystearic acid at the concentrations shown in the tables. Samples were extracted and analyzed via liquid chromatography/tandem mass-spectrometry (LC/MS/MS) for deuterated d31-Palmitic acid (dC16:0) elongation. Precursor-to-product ion transitions, specific to deuterated elongated fatty acids derived from d31-Palmitic acid, were identified and measured.
# [2] = system: EpiDerm in vitro 3D skin equivalents of keratinocytes; assay: Elongation of deuterated d23-Lauric acid in EpiDerm 3D skin equivalents (LC/MS/MS); type: cell-based, human; conditions: for d23 C12:0 signal: lauric acid prior to elongation
# Experimental: In this experiment, EpiDerm in vitro 3D skin equivalents of keratinocytes (commercially available from Matek) were used as a model system to investigate bioconversions in human skin. The skin equivalents were topically treated with deuterated d23-Lauric acid (dC12:0) in propylene glycol:ethanol (70:30), one time per day for seven days with concentrations in the range of 400 ng/cm^2 to 5000 ng/cm^2. Samples were harvested, extracted and analyzed via liquid chromatography/tandem mass-spectrometry (LC/MS/MS) for deuterated d23-Lauric acid elongation. Precursor-to-product (i.e., elongation) ion transitions, specific to deuterated elongated fatty acids derived from d23 Lauric acid, were identified and measured. The first column depicts the signal for lauric acid provided to the EpiDerm prior to elongation.
# [3] = 12HSA 3 uM with 1 uM dC16:0, harvested day 7
# [4] = 12HSA 10 uM with 1 uM dC16:0, harvested day 7
# [5] = 12HSA 30 uM with 1 uM dC16:0, harvested day 7
# [6] = 12HSA 100 uM with 1 uM dC16:0, harvested day 7
# [7] = 1 uM d31-Palmitic acid, No 12 HSA, harvested day 7
# [8] = 400 ng/cm2, once per day for seven days
# [9] = 1000 ng/cm2, once per day for seven days
# [10] = 5000 ng/cm2 dC12:0, once per day for seven days
structure (smiles),measurement,setting,value
"CCCCCCC(O)CCCCCCCCCCC(=O)O (stereo not shown) [12HSA, 12-hydroxystearic acid]",amount of resulting deuterated sphingosine in the presence of the PPAR activator,human skin discards; 3% 12-hydroxystearic acid with 3% d31palmitic acid vs d31palmitic acid alone,increased
same,dC16:0 signal,[1]; [3],486506 u
same,dC18:0 signal,[1]; [3],710249 u
same,dC20:0 signal,[1]; [3],11478 u
same,dC22:0 signal,[1]; [3],94091 u
same,dC24:0 signal,[1]; [3],294398 u
same,dC26:0 signal,[1]; [3],60180 u
same,dC16:0 signal,[1]; [4],503533 u
same,dC18:0 signal,[1]; [4],713499 u
same,dC20:0 signal,[1]; [4],13666 u
same,dC22:0 signal,[1]; [4],98634 u
same,dC24:0 signal,[1]; [4],306176 u
same,dC26:0 signal,[1]; [4],62141 u
same,dC16:0 signal,[1]; [5],921997 u
same,dC18:0 signal,[1]; [5],792317 u
same,dC20:0 signal,[1]; [5],18245 u
same,dC22:0 signal,[1]; [5],131062 u
same,dC24:0 signal,[1]; [5],470314 u
same,dC26:0 signal,[1]; [5],109818 u
same,dC16:0 signal,[1]; [6],677241 u
same,dC18:0 signal,[1]; [6],750585 u
same,dC20:0 signal,[1]; [6],75060 u
same,dC22:0 signal,[1]; [6],201806 u
same,dC24:0 signal,[1]; [6],774622 u
same,dC26:0 signal,[1]; [6],219006 u
same,effect on formation of elongated fatty acids from d31-Palmitic acid,[1]; compared to samples deplete of the activator,boosts and enhances the formation of elongated fatty acids from d31C16:0 to d31C26:0
"[2H]C([2H])([2H])C([2H])([2H])C([2H])([2H])C([2H])([2H])C([2H])([2H])C([2H])([2H])C([2H])([2H])C([2H])([2H])C([2H])([2H])C([2H])([2H])C([2H])([2H])C([2H])([2H])C([2H])([2H])C([2H])([2H])C([2H])([2H])C(=O)O [deuterated palmitic acid, d31-Palmitic acid]",Deuterated Sphingosine signal abundance,"human skin discards; hydrolyzed ceramide fraction, composition with 3% by weight of each ingredient applied to human skin discards, harvested after 5 days, 37° C.","36,958 u"
same,dC16:0 signal,[1]; [7],646987 u
same,dC18:0 signal,[1]; [7],663577 u
same,dC20:0 signal,[1]; [7],11233 u
same,dC22:0 signal,[1]; [7],90496 u
same,dC24:0 signal,[1]; [7],278426 u
same,dC26:0 signal,[1]; [7],60009 u
"[2H]C([2H])([2H])C([2H])([2H])C([2H])([2H])C([2H])([2H])C([2H])([2H])C([2H])([2H])C([2H])([2H])C([2H])([2H])C([2H])([2H])C([2H])([2H])C([2H])([2H])C(=O)O [dC12:0, d23-Lauric acid]",d23 C14:0 signal,[2]; [8],4670 u
same,d23 C16:0 signal,[2]; [8],46204 u
same,d23 C18:0 signal,[2]; [8],140851 u
same,d23 C20 signal,[2]; [8],20848 u
same,d23 C22:0 signal,[2]; [8],45885 u
same,d23 C24:0 signal,[2]; [8],68863 u
same,d23 C12:0 signal,[2]; [8],24559 u
same,d23 C14:0 signal,[2]; [9],7481 u
same,d23 C16:0 signal,[2]; [9],338885 u
same,d23 C18:0 signal,[2]; [9],467624 u
same,d23 C20 signal,[2]; [9],54050 u
same,d23 C22:0 signal,[2]; [9],128640 u
same,d23 C24:0 signal,[2]; [9],187974 u
same,d23 C12:0 signal,[2]; [9],51904 u
same,d23 C14:0 signal,[2]; [10],53655 u
same,d23 C16:0 signal,[2]; [10],1026969 u
same,d23 C18:0 signal,[2]; [10],1355969 u
same,d23 C20 signal,[2]; [10],227595 u
same,d23 C22:0 signal,[2]; [10],513274 u
same,d23 C24:0 signal,[2]; [10],758093 u
same,d23 C12:0 signal,[2]; [10],528578 u
same,bioconversion/elongation of dC12:0 in skin equivalents,[2]; enzymes present in the skin equivalents,"convert to dC16:0 via fatty acid synthase enzyme, followed by further elongation of dC16:0 to deuterated Lignoceric acid C24:0"

# Source: patent US20240050342A1, “PROLIPID COMPOSITION FOR PERSONALIZED BENEFITS AND METHOD FOR USING THE SAME” (Conopco, Inc., d/b/a UNILEVER, priority 2020, published 2024)
